Laboratory results taken from patent US6284758A, “Angiogenesis promoters and angiogenesis potentiators” (priority 1997, dated 2001).

Columns and labels:
[1] = Acute toxicity, oral, dog; conditions: in vivo, oral administration
[2] = tested on: rat sponge model (angiogenic effect of b-FGF); assay: Potentiation of angiogenic effect of b-FGF by compound A in rat sponge model (b-FGF 1 μg/sponge); format: in vivo; conditions: for Hemoglobin in sponge at 4 days after embedding: mean±standard error, number of animals 10
Description: (§1) The test animal models were prepared in the same manner as in Experimental Example 1.
As a reagent, compound A (4-bromo-6-[3-(4-chlorophenyl)-propoxy]-5-(3-pyridylmethylamino)-3-(2H)-pyridazinone hydrochloride, 50 mg) produced by a conventional method was suspended in 0.5% methylcellulose solution (100 ml) in a mortar and used.
The vehicle (0.5% methylcellulose solution) was obtained by dissolving methylcellulose (5 g, manufactured by Kishida Chemical Industries, Ltd.) in distilled water (1000 ml).
A 0.1% bovine serum albumin (BSA)-physiological saline solution was prepared by dissolving BSA (0.1 g, Sigma) in physiological saline (100 Ml).
A b-FGF solution was prepared by dissolving recombinant b-FGF (20 μg, manufactured by BTI) in 0.1% BSA-physiological saline solution (2 ml).
A hemostatic gelatin sponge was the same as that used in Experimental Example 1.
The test group was divided into 3 groups. A sponge wetted with 100 μl of 0.1% BSA-physiological saline solution was embedded in group 1. A sponge (1 μg b-FGF/sponge) wetted with b-FGF solution (100 μl) was embedded in group 2 and group 3.
The vehicle was orally administered to group 1 and group 2, and the reagent (compound A) was orally administered to group 3 repeatedly from the day of sponge embedding at the dose of 10 ml/kg twice a day for 4 days.
In every test group, the administration began from the evening (single administration) of the very day of embedding. The time of administration of the drug was around 9 a.m. for the first administration and around 7 p.m. for the second administration. In consideration of the effect of the drug, the drug was not administered on the very day of sponge removal (7 times of administration in total).
After 4 days from the embedding, an excess amount of pentobarbital was intravenously injected to the animals for euthanasia. The back was opened, and the tissue surrounding the embedded sponge was removed and the surface of the sponge was photographed. The sponge was taken out and hemoglobin in the sponge was calculated in the same manner as in Experimental Example 1.
The obtained data were expressed in mean±standard error. For the evaluation of the angiogenic effect, a multiple comparison test by Tukey method was performed to examine significant difference. The significance was ascribed at less than 5% risk rate.

rat and dog = assay: Acute toxicity, oral, rat and dog (overall finding); format: in vivo; conditions: oral administration
[3] = tested on: rat sponge model (angiogenesis); assay: Angiogenesis promotion by compound A in rat sponge model (embedded gelatin sponge; hemoglobin in sponge and photograph); format: in vivo
Description: Rats were anesthetized by intraperitoneal administration of sodium pentobarbital (50 mg/kg), and the dorsal median line was incised for about 1 cm and an air pocket was made subcutaneously at about 2.5 cm toward the tail side with a Kocher clamp. A hemostatic gelatin sponge (Spongel®, 10 mm×10 mm×7 mm; manufactured by Yamanouchi Pharmaceutical Co., Ltd.) impregnated with physiological saline was embedded therein. The opening was sutured and antisepticized to give a test animal model.
As a reagent, compound A (4-bromo-6-[3-(4-chlorophenyl)-propoxy]-5-(3-pyridylmethylamino)-3-(2H)-pyridazinone hydrochloride, 100 mg) produced by a conventional method was suspended in 0.5% methylcellulose solution (100 ml) in a mortar and used.
As a control, a vehicle (0.5% methylcellulose solution) was used. The vehicle was obtained by dissolving methylcellulose (5 g, manufactured by Kishida Chemical Industries, Ltd.) in distilled water (1000 ml).
The reagent (compound A) and the vehicle were orally administered repeatedly from the day of sponge embedding at a dose of 10 ml/kg once a day for 4 days or 7 days. The administration was performed 30 minutes before anesthetizing the animal on the very day of embedding, and the sponge was removed on the next day of the final administration.
After 4 days or 7 days from the embedding, an excess amount of pentobarbitalwas intravenously injected to the animals for euthanasia. The back was opened, and the tissue surrounding the embedded sponge was removed and the surface of the sponge was photographed. The sponge was taken out and placed in a 0.1M aqueous ammonia (2 ml), which was stood for 4 hr to extract hemoglobin in the sponge. The extract (100 μl) was taken, and hemoglobin was quantitated using an assay kit (hemoglobin B-TESTWAKO; manufactured by Wako Pure Chemical Industries, Ltd.) and used as the index of angiogenesis. The amount of hemoglobin in the sponge was calculated by the following formula.
Amount of hemoglobin in sponge (mg/sponge)=hemoglobin (mg) in extract (100
μl)×20 (total extract 2 ml)
The obtained data were expressed in mean±standard error. For the evaluation of the angiogenic effect, an unpaired t-test was performed using the animals administered with the drug for 4 days or 7 days and respective vehicle groups as control to examine significant difference. The significance was ascribed at less than 5% risk rate.

[4] = Hypotensive action in rat; format: in vivo; conditions: 5 mg/kg, based on vasodilating action
[5] = tested on: rat sponge model (angiogenesis); assay: Relationship between dose and angiogenesis promotion by compound A in rat sponge model; format: in vivo; conditions: for Hemoglobin amount in sponge vs vehicle (in words): 7 times in total, Dunnett test
Description: as §1
As a reagent, compound A (4-bromo-6-[3-(4-chlorophenyl)-propoxy]-5-(3-pyridylmethylamino)-3-(2H)-pyridazinone hydrochloride, 35 mg) produced by a conventional method was suspended in 0.5% methylcellulose solution (70 ml) in a mortar and used as a 5 mg/kg administration reagent.
This suspension was diluted two-fold and 5-fold with a vehicle (0.5% methylcellulose solution) to give 2.5 mg/kg administration reagent and 1 mg/kg administration reagent (respective dose 10 ml/kg). The vehicle (0.5% methylcellulose solution) was used as a control. The vehicle was obtained by dissolving methylcellulose (5 g, manufactured by Kishida Chemical Industries, Ltd.) in distilled water (1000 ml).
Each reagent (compound A) and the vehicle were orally administered repeatedly (7 times in total) from the day of sponge embedding at a dose of 10 ml/kg twice a day for 4 days. The sponge was removed on the next day of the final administration, and hemoglobin in the sponge was calculated in the same manner as Experimental in Example 1.
Each group contained […] animals and the obtained data were expressed in mean±standard error. For the evaluation of the angiogenic effect, a Dunnett test was performed using the vehicle administration group as a control to examine significant difference. The significance was ascribed at less than 5% risk rate.

[6] = Acute toxicity, oral, rat; conditions: in vivo, oral administration
[7] = day 4 and day 7, also seen with vehicle

| Molecule | LD50 [1] | Observation of photograph: neovascularized blood vessels ([2]; day 4, group 3 (b-FGF and compound A, 5 mg/kg, co-administration) vs group 2 (b-FGF alone)) | Hemoglobin content vs group 1 and group 2 (in words) ([2]; group 3 (b-FGF and compound A, 5 mg/kg, co-administration), day 4) | Hemoglobin in sponge at 4 days after embedding ([2]; group 3: compound A 5 mg/kg orally twice a day (7 times in total) plus b-FGF (1 μg/sponge) in sponge, p < 0.01 relative to group 1 and group 2 (Tukey method)) | Toxicity (in words) (rat and dog) | Time course of amount of hemoglobin in sponge (in words) [3, 7] | Time course of neovascularized blood vessels on the sponge surface (in words) [3, 7] | Amount of hemoglobin in sponge vs vehicle (in words) ([3]; day 7 of the test) | Observation of photograph: neovascularized blood vessels on the sponge surface ([3]; day 7 of the test, vs vehicle administration group) | Hemoglobin in sponge, 4 days after embedding ([3]; oral, 10 ml/kg (100 mg/100 ml suspension) once a day for 4 days, mean±standard error, number of animals 10, vehicle 6.216 ± 0.903) | Hemoglobin in sponge, 7 days after embedding ([3]; oral, 10 ml/kg (100 mg/100 ml suspension) once a day for 7 days, mean±standard error, number of animals 9, vehicle 9.585 ± 0.774, **p < 0.01 relative to vehicle, unpaired t-test) | Hypotensive action [4] | Hemoglobin amount in sponge vs vehicle (in words) ([5]; 2.5 mg/kg orally twice a day) | Hemoglobin amount in sponge vs vehicle (in words) ([5]; 5 mg/kg orally twice a day) | Effect at 5 mg/kg on hemoglobin amount, tendency (in words) ([5]; 5 mg/kg, postulated due to decrease in blood flow from hypotensive action) | Angiogenesis promotion effect at a dose substantially free from hypotensive action (in words) ([5]; rat) | LD50 [6] | Observation of photograph: neovascularized blood vessels ([2]; day 4, group 2 (b-FGF single administration) vs group 1 (BSA-physiological saline)) | Hemoglobin in sponge at 4 days after embedding ([2]; group 2: b-FGF (1 μg/sponge) in sponge, vehicle orally, group 1 (BSA-saline) 5.503 ± 0.562) |
| --- | --- | --- | --- | --- | --- | --- | --- | --- | --- | --- | --- | --- | --- | --- | --- | --- | --- | --- | --- |
| Cl.O=c1[nH]nc(OCCCc2ccc(Cl)cc2)c(NCc2cccnc2)c1Br [compound A, 4-bromo-6-[3-(4-chlorophenyl)-propoxy]-5-(3-pyridylmethylamino)-3-(2H)-pyridazinone hydrochloride] | ≥ 2000 mg/kg | showed still more neovascularized blood vessels than in group 2 | showed a significant increase in hemoglobin content as compared to group 1 (0.1% BSA-physiological saline solution group) and group 2 (b-FGF single administration group) | 14.995 ± 2.307 mg/sponge | extremely low toxic | showed an increase in the amount of hemoglobin in sponge at day 4 and day 7 of the test, in proportion to the number of days lapsed | showed an increase of neovascularized blood vessels on the sponge surface at day 4 and day 7 of the test in proportion to the number of days lapsed | showed a significant increase as compared to the vehicle administration group | showed more neovascularized blood vessels than in the vehicle administration group | 6.255 ± 0.807 mg/sponge | 16.351 ± 1.836 mg/sponge | causes hypotensive action in rat | showed a significant increase in hemoglobin amount | showed a significant increase in hemoglobin amount | the effect tended to weaken somewhat, though a significant difference was found | superior angiogenesis promotion effect at a dose substantially free from hypotensive action | ≥ 2000 mg/kg |  |  |
| b-FGF: recombinant b-FGF (20 μg, manufactured by BTI); basic fibroblast growth factor |  |  |  |  |  |  |  |  |  |  |  |  |  |  |  |  |  | visually showed more neovascularized blood vessels than in group 1 | 7.285 mg/sponge |
